Values of other authors as cited in US20120277197A1, “TIGECYCLINE FORMULATIONS” (WYETH, priority 2008, published 2012).

Conditions: cited from earlier work; for activity retained after frozen storage: after 14-23 days of frozen storage

Molecule	activity retained after frozen storage	further results
CC1(C)S[C@@H]2[C@H](NC(=O)[C@H](N)c3ccc(O)cc3)C(=O)N2[C@H]1C(=O)O [amoxycillin sodium]	–	stability on freezing solutions (in normal saline or in glucose): markedly reduced stability
CC1(C)S[C@@H]2[C@H](NC(=O)C(C(=O)O)c3ccccc3)C(=O)N2[C@H]1C(=O)O (some centres unmarked) [carbenicillin]	retained essentially all of their activity	–
CC(=O)OCC1=C(C(=O)O)N2C(=O)[C@@H](NC(=O)Cc3cccs3)[C@H]2SC1 [cephalothin]	retained essentially all of their activity	–
C[C@@H](O)[C@H]1C(=O)N2C(C(=O)O)=C(S[C@@H]3CN[C@H](C(=O)Nc4cccc(C(=O)O)c4)C3)[C@H](C)[C@H]12 [ertapenem]	–	stability of solutions frozen at −20° C. (frozen at −20° C.): extreme variability in stability
penicillin	retained essentially all of their activity	–
